Data from patent US20240293418A1, “COMBINATION THERAPY FOR TREATING CANCER” (Epizyme, Inc., priority 2016, published 2024).
Like-named read-outs stand apart in the source and are kept apart here.

Key:
[1] = system: LP-1; assay: 7 day pretreatment + 4-day co-treatment combination model (Cell Titer Glo); settings: for IC50: read-out: 4-day IC50
Description: (§1) Assay plates were developed for endpoint analysis using Cell Titer Glo to measure ATP content, which was used as an indicator of cell viability. DMSO concentration was kept constant throughout the assay at less than 0.2% v/v.
(§2) Cell lines: The cell lines MI1.S and U266B1 were obtained from American Type Culture Collection (ATCC; Rockville, MD). The cell lines LP-1, L-363 were obtained from Deutsche Sammlung von Mikroorganismen and Zellkulturen (DSMZ; Braunschweig, Germany) and the cell line KMS-28BM was obtained from Japanese Collection of Research Bioresources Cell Bank (JCRB, Osaka Japan). All cells were maintained as instructed by the supplier and cultures were maintained at 37° C. in a humidified atmosphere and 5% CO2.
(§3) Loewe volumes greater than 1 denoted synergy and volumes <−1 denoted antagonism.

[2] = system: MM1.S; assay: as above; settings: read-out: 4-day IC50
Description: as §1, §2, §3

[3] = system: L-363; assay: as above; settings: for IC50: read-out: 4-day IC50
Description: as §1, §2, §3

[4] = system: KMS-28-BM; assay: as above; settings: for IC50: read-out: 4-day IC50
Protocol: as §1
(§4) All cells were maintained as instructed by the supplier and cultures were maintained at 37° C. in a humidified atmosphere and 5% CO2.
as §3

[5] = system: U266; assay: as above; settings: for IC50: read-out: 4-day IC50
Description: as §1, §2, §3

[6] = system: MM1.S; assay: 7-day co-treatment combination model (Cell Titer Glo); settings: second agent + tazemetostat, 7 day co-treatment
Protocol: as §1
(§5) Cell lines: The cell lines MI1.S and U266B1 were obtained from American Type Culture Collection (ATCC; Rockville, MD). […] All cells were maintained as instructed by the supplier and cultures were maintained at 37° C. in a humidified atmosphere and 5% CO2.
as §3

[7] = system: RPMI-8226; assay: as above; settings: second agent + tazemetostat, 7 day co-treatment
Protocol: as §1, §5, §3

[8] = system: MOLP-8; assay: 7 day pretreatment + 4-day co-treatment combination model (Cell Titer Glo); settings: second agent + tazemetostat, MOLP-8 t(11;14)
Protocol: as §1, §4, §3

[9] = system: Jeko-1; assay: mantle cell lymphoma 7 day pretreatment + 4-day co-treatment model (Cell Titer Glo); settings: for IC50: Homo sapiens, JeKo-1, 96 h, read-out: Second agent IC50; for Bliss Volume / HSA Volume / Loewe Volume / Synergy Score: second agent + tazemetostat, 7 day pretreatment + 4-day co-treatment, Jeko-1
Description: (§6) Cells were then co-treated in triplicate with a second compound, 3-fold serially diluted for additional 4 days. After this time, plates were developed for endpoint analysis using Cell Titer Glo to measure ATP content, which is used as an indicator of cell viability.
(§7) A Loewe volume greater than 1 denoted synergy. A Loewe volume between −1 and 1 denoted additivity, and a negative Loewe volume of less than −1, denoted antagonism.

[10] = system: Jeko-1; assay: mantle cell lymphoma 7 day co-treatment model; format: cell-based; settings: for Best CI / Bliss Volume / HSA Volume / Loewe Volume / Synergy Score: second agent + tazemetostat, 7 day co-treatment; for IC50: second agent alone, 7 day co-treatment model
[11] = system: Maver-1; assay: mantle cell lymphoma 7 day pretreatment + 4-day co-treatment model (Cell Titer Glo)
Description: as §6, §7

[12] = system: Granta-519; assay: as above
Description: as §6, §7

[13] = system: Granta-519; assay: mantle cell lymphoma 7 day co-treatment model; format: cell-based; settings: for IC50: Homo sapiens, 168 h, second agent alone, 7 day co-treatment model; for Best CI / Bliss Volume / HSA Volume / Loewe Volume / Synergy Score: second agent + tazemetostat, 7 day co-treatment
[14] = system: LP-1; assay: 7-day co-treatment combination model (Cell Titer Glo); settings: second agent + tazemetostat; 7-day co-treatment; LP-1 t(4;14)
Protocol: as §1, §4, §3

[15] = system: MOLP-8; assay: as above; settings: second agent + tazemetostat; 7-day co-treatment; MOLP-8 t(11;14)
Protocol: as §1, §4, §3

[16] = second agent + tazemetostat, 7 day pretreatment + 4-day co-treatment, LP-1 t(4;14)
[17] = second agent + tazemetostat, 7 day pretreatment + 4-day co-treatment, L-363 t(20;22)
[18] = second agent + tazemetostat, 7 day pretreatment + 4-day co-treatment, KMS-28-BM t(4;14)
[19] = second agent + tazemetostat, 7 day pretreatment + 4-day co-treatment, U266 t(11;14)
[20] = second agent + tazemetostat, 7 day pretreatment + 4-day co-treatment, Maver-1
[21] = second agent + tazemetostat, 7 day pretreatment + 4-day co-treatment, Granta-519

| IC50 ([2]; Homo sapiens, MM1.S, 96 h) [nM] | IC50 ([5]; Homo sapiens, U-266, 96 h) [nM] | Structure (SMILES) | IC50 ([1]; Homo sapiens, LP-1, 96 h) [nM] | IC50 ([3]; Homo sapiens, L-363, 96 h) [nM] | IC50 ([4]; KMS-28BM, 96 h) [nM] | combinatorial effect by Loewe volumes [8] | combinatorial effect by Loewe volumes [1, 16] | combinatorial effect by Loewe volumes [3, 17] | combinatorial effect by Loewe volumes [4, 18] | combinatorial effect by Loewe volumes [5, 19] | also measured |
| --- | --- | --- | --- | --- | --- | --- | --- | --- | --- | --- | --- |
| 1.07 | 3 | CC(C)C[C@H](NC(=O)[C@H](CCc1ccccc1)NC(=O)CN1CCOCC1)C(=O)N[C@@H](Cc1ccccc1)C(=O)N[C@@H](CC(C)C)C(=O)[C@@]1(C)CO1 [Carfilzomib, carfilzomib] | 3.5 | 2 | 2 | A (Additive) | S (Synergy) | A (Additive) | S (Synergy) | S (Synergy) |  |
| 8 | 50 | COc1cccc2c1C(=O)c1c(O)c3c(c(O)c1C2=O)C[C@@](O)(C(=O)CO)C[C@@H]3O[C@H]1C[C@H](N)[C@H](O)[C@H](C)O1 [Doxorubicin, doxorubicin] | 203 | 10 | 87 | A (Additive) | S (Synergy) | A (Additive) | A (Additive) | A (Additive) |  |
| 122 | 787 | COc1cc([C@@H]2c3cc4c(cc3[C@@H](O[C@@H]3O[C@@H]5CO[C@@H](C)O[C@H]5[C@H](O)[C@H]3O)[C@H]3COC(=O)[C@H]23)OCO4)cc(OC)c1O [Etoposide, etoposide] | 3000 | 140 | 478 |  |  |  |  |  |  |
| 305 | > 10000 | Nc1cccc2c1CN(C1CCC(=O)NC1=O)C2=O (centres unmarked) [Lenalidomide, lenalidomide] | 973 | 379 | > 10000 | S (Synergy) | S (Synergy) | S (Synergy) | S (Synergy) | S (Synergy) | IC50 [9]: 902 nM; Bliss Volume [9]: 2.67; HSA Volume [9]: 4.46; Loewe Volume [9]: 4.35; Synergy Score [9]: 4.01; Best CI [10]: 0.35; Bliss Volume [10]: 1.86; HSA Volume [10]: 2.74; Loewe Volume [10]: 2.87; Synergy Score [10]: 3.68; IC50 [10]: 872 nM |
| 158 | > 10000 | C[C@]12C=CC(=O)C=C1CC[C@@H]1[C@@H]2[C@@H](O)C[C@@]2(C)[C@H]1CC[C@]2(O)C(=O)CO [Prednisolone, prednisolone] | 36 | 100 | 36 | S (Synergy) | S (Synergy) | A (Additive) | S (Synergy) | A (Additive) |  |
| > 10000 | > 10000 | O=C1CCC(N2C(=O)c3ccccc3C2=O)C(=O)N1 (centres unmarked) [Thalidomide, thalidomide] | > 10000 | > 10000 | > 10000 |  |  |  |  |  |  |
| 1 | 0.5 | CC[C@]1(O)C[C@H]2CN(CCc3c([nH]c4ccccc34)[C@@](C(=O)OC)(c3cc4c(cc3OC)N(C=O)[C@H]3[C@@](O)(C(=O)OC)[C@H](OC(C)=O)[C@]5(CC)C=CCN6CC[C@]43[C@@H]65)C2)C1 [Vincristine, vincristine] | 2.3 | 1 | 1.15 |  |  |  |  |  |  |

Continued, compound first:

| Structure (SMILES) | IC50 ([2]; Homo sapiens, MM1.S, 96 h) [nM] | IC50 ([5]; Homo sapiens, U-266, 96 h) [nM] | IC50 ([1]; Homo sapiens, LP-1, 96 h) [nM] | IC50 ([3]; Homo sapiens, L-363, 96 h) [nM] | IC50 ([4]; KMS-28BM, 96 h) [nM] | combinatorial effect by Loewe volumes [8] | combinatorial effect by Loewe volumes [1, 16] | combinatorial effect by Loewe volumes [3, 17] | combinatorial effect by Loewe volumes [4, 18] | combinatorial effect by Loewe volumes [5, 19] | also measured |
| --- | --- | --- | --- | --- | --- | --- | --- | --- | --- | --- | --- |
| Cn1c(CCCC(=O)O)nc2cc(N(CCCl)CCCl)ccc21 [Bendamustine, bendamustine] | > 10000 | > 10000 | > 10000 | > 10000 | > 10000 |  |  |  |  |  |  |
| Cc1nc2cccc(N)c2c(=O)n1C1CCC(=O)NC1=O (centres unmarked) [CC-122] |  |  |  |  |  |  |  |  |  |  | Loewe volume [6]: 1.93; Loewe volume [7]: 2.29 |
| O=P1(N(CCCl)CCCl)NCCCO1 (centres unmarked) [Cyclophosphomide, cyclophosphamide] | 1180 | > 10000 | 6000 | > 10000 | 1480 |  |  |  |  |  |  |
| CO[C@H]1C[C@@H]2CC[C@@H](C)[C@@](O)(O2)C(=O)C(=O)N2CCCC[C@H]2C(=O)O[C@H]([C@H](C)C[C@@H]2CC[C@@H](OCCO)[C@H](OC)C2)CC(=O)[C@H](C)/C=C(\C)[C@@H](O)[C@@H](OC)C(=O)[C@H](C)C[C@H](C)/C=C/C=C/C=C/1C [Everolimus, everolimus] |  |  |  |  |  |  |  |  |  |  | IC50 [9]: 0.7 nM; Bliss Volume [9]: 1.42; HSA Volume [9]: 4.62; Loewe Volume [9]: 3.95; Synergy Score [9]: 4.03; Best CI [10]: 1.0; Bliss Volume [10]: −0.060; HSA Volume [10]: 0.084; Loewe Volume [10]: 0.56; Synergy Score [10]: 0.4; IC50 [10]: 0.5 nM; Loewe volume [11, 20]: 6.5; Loewe volume [12, 21]: 5.1 |
| C=CC(=O)N1CCC[C@@H](n2nc(-c3ccc(Oc4ccccc4)cc3)c3c(N)ncnc32)C1 [Ibrutinib, ibrutinib] |  |  |  |  |  |  |  |  |  |  | IC50 [13]: 856 nM; Best CI [13]: 0.38; Bliss Volume [13]: 0.894; HSA Volume [13]: 3.86; Loewe Volume [13]: 4.16; Synergy Score [13]: 2.26; IC50 ([11]; Homo sapiens, Maver1, read-out: Second agent IC50): > 3.3 µM; Best CI [11, 20]: 0.08; Bliss Volume [11, 20]: 0.804; HSA Volume [11, 20]: 3.90; Loewe Volume [11, 20]: 3.76; Loewe volume [11, 20]: 3.8; Synergy Score [11, 20]: 2.33; Loewe volume [12, 21]: 5.8 |
| CC(C)C[C@H](NC(=O)CNC(=O)c1cc(Cl)ccc1Cl)B(O)O [Ixazomib, ixazomib] |  |  |  |  |  | A (Additive) |  |  |  |  | combinatorial effect by Loewe volumes [1]: S (key: Antagonism; Synergy; Additive; X: Not Tested); IC50 ([1]; single agent, LP-1 t(4; 14)): 12 nM; IC50 ([2]; single agent, MM1.S t(14; 16)): 12 nM; combinatorial effect by Loewe volumes [3]: A (key: Antagonism; Synergy; Additive; X: Not Tested); IC50 ([3]; single agent, L-363 t(20; 22)): 47 nM; combinatorial effect by Loewe volumes [4]: A (key: Antagonism; Synergy; Additive; X: Not Tested); IC50 ([4]; single agent, KMS-28-BM t(4; 14)): 19 nM; combinatorial effect by Loewe volumes [5]: S (key: Antagonism; Synergy; Additive; X: Not Tested); IC50 ([5]; single agent, U266 t(11; 14)): 1.5 nM |
| N[C@@H](Cc1ccc(N(CCCl)CCCl)cc1)C(=O)O [Melphalan, melphalan] | 2940 | > 10000 | > 10000 | > 10000 | 1120 |  |  |  |  |  |  |
| CC1(C)CCC(CN2CCN(c3ccc(C(=O)NS(=O)(=O)c4ccc(NCC5CCOCC5)c([N+](=O)[O-])c4)c(Oc4cnc5[nH]ccc5c4)c3)CC2)=C(c2ccc(Cl)cc2)C1 [Venetoclax, venetoclax] |  |  |  |  |  | A (Additive) | S (Synergy) |  | S (Synergy) |  | IC50 [13]: 41 nM; Best CI [13]: 0.43; Bliss Volume [13]: 1.76; HSA Volume [13]: 3.06; Loewe Volume [13]: 2.73; Synergy Score [13]: 3.82; IC50 ([12]; Homo sapiens, Granta-519, read-out: Second agent IC50): 58 nM; Best CI [12, 21]: 0.09; Bliss Volume [12, 21]: 3.95; HSA Volume [12, 21]: 7.17; Loewe Volume [12, 21]: 6.72; Synergy Score [12, 21]: 7.23; combinatorial effect by Loewe volumes [14]: S (Synergy); combinatorial effect by Loewe volumes [15]: A (Additive) |
| O=C(CCCCCCC(=O)Nc1ccccc1)NO [Vorinostat, vorinostat] |  |  | 669 |  |  | A (Additive) | S (Synergy) | A (Additive) | S (Synergy) | S (Synergy) |  |
